Laboratory results as given in BindingDB's records for patent US20240376090 (Arena Pharmaceuticals, 2024).

Target: 5-hydroxytryptamine receptor 2A (Homo sapiens, UniProt P28223)
Assay: Radioligand Binding Assay Protocol
Experimental: Competition binding experiments consisted of addition of 5 μL of serially diluted test compound, 50 μL of radioligand stock diluted in Assay Buffer (20 mM HEPES, pH 7.4, 10 mM MgCl2), and 145 μL of diluted membrane expressing the receptor of interest to 96-well microtiter plates, which were then incubated for one hour at room temperature. Assay incubations were terminated by rapid filtration through Perkin Elmer GF/C filtration plates under vacuum pressure using a 96-well Packard filtration apparatus, followed by washing the filter plates several times with ice cold Assay Buffer. Plates were then dried at 45° C. for a minimum of four hours. Finally, 25 μL of BetaScint scintillation cocktail was added to each well and the plates were counted in a Packard TopCount scintillation counter. In each competition study, test compounds were assayed at 10 concentrations with three replicates at each test concentration.

Sequence of 5-hydroxytryptamine receptor 2A (P28223 whole entry): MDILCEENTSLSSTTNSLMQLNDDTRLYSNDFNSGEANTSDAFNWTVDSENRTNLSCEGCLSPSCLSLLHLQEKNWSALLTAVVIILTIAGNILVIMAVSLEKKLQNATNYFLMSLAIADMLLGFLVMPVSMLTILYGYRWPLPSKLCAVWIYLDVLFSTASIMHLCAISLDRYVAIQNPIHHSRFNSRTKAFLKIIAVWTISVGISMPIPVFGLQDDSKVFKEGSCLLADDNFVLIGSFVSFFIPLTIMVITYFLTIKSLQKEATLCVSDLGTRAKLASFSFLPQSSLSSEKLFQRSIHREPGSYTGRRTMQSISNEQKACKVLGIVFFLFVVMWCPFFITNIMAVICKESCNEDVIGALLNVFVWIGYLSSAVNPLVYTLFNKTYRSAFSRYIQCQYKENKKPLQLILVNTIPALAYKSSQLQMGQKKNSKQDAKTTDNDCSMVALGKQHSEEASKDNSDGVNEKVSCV

Structure (SMILES): CC/C(=C(/C)ON)c1cc(NC(=O)C[C@H]2CCOC2)ccc1OC[C@H]1CCCCN1 [US20240376090, Compound 202]
- Ki: 9.81 nM
